ChEMBL document CHEMBL2074207, “Functional characterization of human breast cancer resistance protein (BCRP, ABCG2) expressed in the oocytes of Xenopus laevis” (Mol Pharmacol, 2003)

Target: T1, Broad substrate specificity ATP-binding cassette transporter ABCG2 (Homo sapiens, UniProt Q9UNQ0)
T1 sequence (Q9UNQ0 whole entry): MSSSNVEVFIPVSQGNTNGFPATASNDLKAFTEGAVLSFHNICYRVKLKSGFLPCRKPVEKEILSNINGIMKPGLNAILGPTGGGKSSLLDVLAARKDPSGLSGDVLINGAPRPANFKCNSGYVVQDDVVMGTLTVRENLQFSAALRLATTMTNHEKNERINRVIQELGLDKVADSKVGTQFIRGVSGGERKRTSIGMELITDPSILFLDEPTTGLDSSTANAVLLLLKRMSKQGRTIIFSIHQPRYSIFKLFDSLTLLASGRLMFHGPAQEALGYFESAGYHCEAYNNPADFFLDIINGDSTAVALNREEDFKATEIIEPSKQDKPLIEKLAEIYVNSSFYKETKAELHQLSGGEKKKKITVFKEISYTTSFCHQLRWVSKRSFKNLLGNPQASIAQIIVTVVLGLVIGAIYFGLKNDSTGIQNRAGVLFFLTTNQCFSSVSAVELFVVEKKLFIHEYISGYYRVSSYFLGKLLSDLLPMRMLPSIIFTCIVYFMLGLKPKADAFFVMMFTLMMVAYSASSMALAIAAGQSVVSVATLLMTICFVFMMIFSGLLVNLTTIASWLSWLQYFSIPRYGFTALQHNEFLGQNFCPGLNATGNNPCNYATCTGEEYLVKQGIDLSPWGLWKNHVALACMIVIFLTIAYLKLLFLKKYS
Experiment: TP_TRANSPORTER: uptake in BCRP-expressing oocyte cells
Format: functional, cell-based
Conditions: xenopus laevis

| Compound | Activity |
| --- | --- |
| CN1CC[C@H](c2c(O)cc(O)c3c(=O)cc(-c4ccccc4Cl)oc23)[C@H](O)C1 [ALVOCIDIB] | substrate [] |
| COc1cccc2c1C(=O)c1c(O)c3c(c(O)c1C2=O)C[C@@](O)(C(C)=O)C[C@@H]3O[C@H]1C[C@H](N)[C@H](O)[C@H](C)O1 [DAUNORUBICIN] | substrate [] |
| O=C1c2c(O)ccc(O)c2C(=O)c2c(NCCNCCO)ccc(NCCNCCO)c21 [MITOXANTRONE] | substrate [] |
| COC(=O)c1ccccc1-c1c2ccc(=N)cc-2oc2cc(N)ccc12.Cl [RHODAMINE123] | substrate [] |
